# Reference: PubChem BioAssay (NCI)
#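 A five-concentration, 48-hour dose response in 96-well plates underlies each endpoint, interpolated linearly between surrounding concentrations. TGI: concentration producing complete growth inhibition.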 Where a SMILES comes first, the peptide text is derived from it. [ ]: non-standard residue; d: D form. The star is where a group is joined. Bn2Val = CC(C)[C@@H](C(=O)*)N(Cc1ccccc1)Cc1ccccc1; NMeV = CN[C@H](C(=O)O)C(C)C; X29 = COc1ccc(CN*)c(OC)c1; dNMeA = CN[C@H](C)C(=O)O
# How the values were obtained:
# Assay in all cases: DTP human tumour cell line panel, 48 h
# [1] = test system: A498 renal
# [2] = test system: OVCAR-5 ovarian
# [3] = test system: NCI-H226 lung
# [4] = test system: CAKI-1 renal
# [5] = test system: HS 578T breast
# [6] = test system: SN12C renal
# [7] = test system: 786-0 renal
# [8] = test system: SK-OV-3 ovarian
# [9] = test system: HCT-116 colon
# [10] = test system: SNB-19 CNS
# [11] = test system: NCI-H522 lung
# [12] = test system: SW-620 colon
# [13] = test system: OVCAR-4 ovarian
# [14] = test system: TK-10 renal
# [15] = test system: MDA-MB-435
# [16] = test system: UO-31 renal
# [17] = test system: HOP-62 NSCLC
# [18] = test system: MDA-MB-231 breast
# [19] = test system: IGROV1 ovarian
# [20] = test system: MDA-N
# [21] = test system: HOP-92 NSCLC
# [22] = test system: DU-145 prostate
# [23] = test system: U251 CNS
# [24] = test system: HCT-15 colon
# [25] = test system: OVCAR-3 ovarian
# [26] = test system: MALME-3M melanoma
# [27] = test system: T-47D breast
# [28] = test system: SK-MEL-2 melanoma
# [29] = test system: RPMI-8226 leukemia
# [30] = test system: UACC-62 melanoma
# [31] = test system: HCC-2998 colon
# [32] = test system: MCF7 breast
# [33] = test system: K-562 leukemia
# [34] = test system: HT29 colon
# [35] = test system: SNB-75 CNS
# [36] = test system: BT-549 breast
# [37] = test system: UACC-257 melanoma
# [38] = test system: EKVX NSCLC
# [39] = test system: HL-60(TB) leukemia
# [40] = test system: NCI-H460 lung
# [41] = test system: COLO 205 colon
# [42] = test system: PC-3 prostate
# [43] = test system: SF-295 CNS
# [44] = test system: SK-MEL-28 melanoma
# [45] = test system: A549 NSCLC
# [46] = test system: OVCAR-8 ovarian
# [47] = test system: LOX IMVI melanoma
# [48] = test system: NCI-H23 lung
# [49] = test system: RXF 393 renal
# [50] = test system: ACHN renal
# [51] = test system: KM12 colon
# [52] = test system: M14 melanoma
# [53] = test system: SF-268 CNS
# [54] = test system: NCI/ADR-RES ovarian
# [55] = test system: SF-539 CNS
# [56] = test system: CCRF-CEM leukemia
# [57] = test system: SR leukemia
# [58] = test system: MOLT-4 leukemia
# [59] = test system: SK-MEL-5 melanoma
smiles,measurement,setting,value
COc1ccc(CNC(=O)[C@@H]2CCCN2C(=O)[C@@H](C)N(C)C(=O)[C@H](C(C)C)N(C)C(=O)[C@@H](NC(=O)[C@H](C(C)C)N(Cc2ccccc2)Cc2ccccc2)C(C)C)c(OC)c1 (Bn2Val-V[NMeV][dNMeA]P-X29),TGI,[1],8.69 µM
same,TGI,[2],3.13 µM
same,TGI,[3],22.1 µM
same,TGI,[4],15.5 µM
same,TGI,[5],> 100 µM
same,TGI,[6],3.25 µM
same,TGI,[7],11.1 µM
same,TGI,[8],63.2 µM
same,TGI,[9],9.62 µM
same,TGI,[10],22.8 µM
same,TGI,[11],24.2 µM
same,TGI,[12],20.6 µM
same,TGI,[13],14.4 µM
same,TGI,[14],22.4 µM
same,TGI,[15],6.61 µM
same,TGI,[16],12 µM
same,TGI,[17],21.1 µM
same,TGI,[18],3.46 µM
same,TGI,[19],12.6 µM
same,TGI,[20],5.78 µM
same,TGI,[21],9.1 µM
same,TGI,[22],20.7 µM
same,TGI,[23],5.21 µM
same,TGI,[24],13.5 µM
same,TGI,[25],14.7 µM
same,TGI,[26],36.7 µM
same,TGI,[27],96 µM
same,TGI,[28],3.45 µM
same,TGI,[29],17.2 µM
same,TGI,[30],15.4 µM
same,TGI,[31],8.39 µM
same,TGI,[32],12 µM
same,TGI,[33],> 100 µM
same,TGI,[34],3.26 µM
same,TGI,[35],7.26 µM
same,TGI,[36],7.72 µM
same,TGI,[37],11.9 µM
same,TGI,[38],12 µM
same,TGI,[39],2800 nM
same,TGI,[40],15.5 µM
same,TGI,[41],5.09 µM
same,TGI,[42],10.1 µM
same,TGI,[43],10.7 µM
same,TGI,[44],10.2 µM
same,TGI,[45],> 100 µM
same,TGI,[46],57.6 µM
same,TGI,[47],7.13 µM
same,TGI,[48],9.3 µM
same,TGI,[49],3.94 µM
same,TGI,[50],13.9 µM
same,TGI,[51],5.78 µM
same,TGI,[52],10.5 µM
same,TGI,[53],> 100 µM
same,TGI,[54],12.3 µM
same,TGI,[55],4.69 µM
Cc1c(OCc2ccccc2)c(=O)ccn1CCc1c[nH]c2ccccc12,TGI,[2],> 100 µM
same,TGI,[5],> 100 µM
same,TGI,[6],> 100 µM
same,TGI,[7],87 µM
same,TGI,[8],> 100 µM
same,TGI,[9],> 100 µM
same,TGI,[10],> 100 µM
same,TGI,[11],69.4 µM
same,TGI,[12],> 100 µM
same,TGI,[14],> 100 µM
same,TGI,[15],51.1 µM
same,TGI,[16],> 100 µM
same,TGI,[17],> 100 µM
same,TGI,[18],> 100 µM
same,TGI,[19],> 100 µM
same,TGI,[20],79.9 µM
same,TGI,[21],51.3 µM
same,TGI,[22],> 100 µM
same,TGI,[23],> 100 µM
same,TGI,[24],> 100 µM
same,TGI,[25],51.4 µM
same,TGI,[26],88.3 µM
same,TGI,[27],58.1 µM
same,TGI,[28],48.2 µM
same,TGI,[29],59.3 µM
same,TGI,[30],87.3 µM
same,TGI,[56],> 100 µM
same,TGI,[32],42.9 µM
same,TGI,[34],71.9 µM
same,TGI,[36],> 100 µM
same,TGI,[37],> 100 µM
same,TGI,[38],> 100 µM
same,TGI,[40],> 100 µM
same,TGI,[57],79.7 µM
same,TGI,[41],32.1 µM
same,TGI,[42],> 100 µM
same,TGI,[58],31.9 µM
same,TGI,[43],> 100 µM
same,TGI,[45],> 100 µM
same,TGI,[46],> 100 µM
same,TGI,[47],> 100 µM
same,TGI,[48],> 100 µM
same,TGI,[59],35.3 µM
same,TGI,[50],> 100 µM
same,TGI,[51],> 100 µM
same,TGI,[52],86.2 µM
same,TGI,[53],64.1 µM
same,TGI,[54],> 100 µM
same,TGI,[55],> 100 µM
